In article PMC2267209, “Transepithelial Transport and Enzymatic Detoxification of Gluten in Gluten-Sensitive Rhesus Macaques” (PLoS ONE, 2008):

Tests used:
[1] = test system: gluten-sensitive rhesus macaque FH45; test: Daily gluten challenge with or without oral EP-B2, clinical score; type: in vivo, rhesus macaques (Macaca mulatta)
From the text: Gluten-sensitive FH45 and control FI96 were switched from a gluten-containing to a gluten-free diet at week 0, re-challenged with the gluten-containing diet from week 10.4 to 11.4, and then returned to a gluten-free diet for the remainder of the experiment. To test whether orally administered EP-B2 can prevent clinical symptoms resulting from gluten challenge, animals were fed a gluten-free diet with the addition of a daily slice of unbleached wheat bread (∼4 g gluten) for 8 weeks (weeks 22.9 to 30.9), during the first 4 of which (weeks 22.9 to 26.9) gluten-sensitive macaque FH45 received a daily dose of 2 g recombinant proEP-B2 dissolved in an electrolyte drink immediately prior to bread consumption. Recombinant proEP-B2 was expressed and purified as previously described, [31]. Peripheral blood samples (1 ml) were collected every 1–2 weeks from a femoral vein, and plasma was harvested and stored at −80 °C until analyzed for AGA and anti-TG2 antibodies. Clinical health was monitored as previously described. Briefly, daily clinical scores were averaged over weekly intervals to obtain each weekly mean±standard deviation. Criteria for clinical scoring (1–6 scale) were scaled relative to “clinically normal”, age-matched controls, i.e. score of 1. Score 2 corresponded to beginning of diarrhea, i.e. pasty stools. Score 3 corresponded to semi-liquid stools and decreased activity. […]

[2] = test system: gluten-sensitive rhesus macaque FH45; test: Indirect ELISA for plasma AGA and anti-TG2 antibodies during gluten challenge with EP-B2; type: in vivo, rhesus macaques (Macaca mulatta)
From the text: Gluten-sensitive FH45 and control FI96 were switched from a gluten-containing to a gluten-free diet at week 0, re-challenged with the gluten-containing diet from week 10.4 to 11.4, and then returned to a gluten-free diet for the remainder of the experiment. To test whether orally administered EP-B2 can prevent clinical symptoms resulting from gluten challenge, animals were fed a gluten-free diet with the addition of a daily slice of unbleached wheat bread (∼4 g gluten) for 8 weeks (weeks 22.9 to 30.9), during the first 4 of which (weeks 22.9 to 26.9) gluten-sensitive macaque FH45 received a daily dose of 2 g recombinant proEP-B2 dissolved in an electrolyte drink immediately prior to bread consumption. Recombinant proEP-B2 was expressed and purified as previously described, [31]. Peripheral blood samples (1 ml) were collected every 1–2 weeks from a femoral vein, and plasma was harvested and stored at −80 °C until analyzed for AGA and anti-TG2 antibodies. Clinical health was monitored as previously described. Briefly, daily clinical scores were averaged over weekly intervals to obtain each weekly mean±standard deviation. Criteria for clinical scoring (1–6 scale) were scaled relative to “clinically normal”, age-matched controls, i.e. score of 1. Score 2 corresponded to beginning of diarrhea, i.e. pasty stools. Score 3 corresponded to semi-liquid stools and decreased activity. Score 4 corresponded to liquid stools, decreased activity, moderate dehydration and “balloon” stomach. Score 5 corresponded to liquid stools, depression, severe dehydration and balloon stomach. Score 6 corresponded to a moribund animal where prompt euthanasia is recommended.
ELISA assays were performed as previously described.

[3] = test system: celiac patient-derived T cells; conditions: ref [2], [19], cited from earlier work
[4] = rhesus monkey, in vivo
Experimental: A 0.5 ml sample of EDTA-blood was collected from an ear vein at 0, 30, 60, 120, and 180 min following the 33-mer inoculation. […] Animals were fasted at least 2 h prior to peptide inoculations. Blood collections and 33-mer inoculations were performed with sedated and anesthetized animals.
Following peptide dosing and peripheral plasma collection, described above, plasma proteins were precipitated by addition of acetonitrile. Plasma was mixed with an equal volume of cold acetonitrile+0.1% formic acid, vortexed, incubated for 2 h at 4°C, and centrifuged at 14,000•g for 10 min at 4°C. […] When quantitation was performed, unlabeled 33-mer was spiked into the plasma samples prior to acetonitrile precipitation as an internal control (5 pmol/100 µl injection) and injections were performed at least in triplicate.
Mass spectrometry analysis was performed as previously described [20] with the following modifications. […] For ^D933-mer, the transitions monitored were m/z 981.0^4+→263.1^+ (30V cone voltage, 27eV collision energy.) for the quantitation assay and m/z 1307.7^3+→263.1^+ (40V cone voltage, 50eV collision energy) as a confirmatory transition. […] Levels of ^D933-mer in each sample were determined by comparison of the area under the ^D933-mer transition peak to the area under the internal standard transition peak. […]

[5] = daily 2 g proEP-B2 plus wheat bread

Substance: EP-B2: gluten-specific barley cysteine endoprotease, dosed orally as recombinant proenzyme; oral glutenase drug candidate for celiac disease
- Clinical health during gluten challenge with EP-B2 ([1]; daily 2 g recombinant proEP-B2 oral immediately before a daily slice of wheat bread (∼4 g gluten), first 4 weeks (weeks 22.9 to 26.9), clinical score 1–6 scale): remained clinically healthy
- Time to signs of clinical illness after EP-B2 dosing was concluded ([1]; wheat bread gluten challenge continued without EP-B2 (weeks 26.9 to 30.9)): ~1 week
- Anti-TG2 IgA ([2]; EP-B2 treatment with gluten challenge): unable to detect
- AGA levels during wheat bread/EP-B2 administration relative to gluten-containing diet (week 0) [2, 5]: ~3 fold
- Anti-TG2 IgG levels over the course of EP-B2 treatment [2, 5]: elevated

Substance: LQLQPFPQPQLPYPQPQLPYPQPQLPYPQPQPF [33-mer, immunotoxic 33-mer gluten peptide derived from gastrointestinal proteolysis of α2-gliadin; unlabeled form used as internal standard]
- Concentration sufficient to stimulate proliferation of celiac patient-derived T cells ([3]; T cells in culture): low nanomolar concentrations
- Proliferation of celiac patient-derived T cell lines ([3]; all T cell lines tested so far): activates proliferation in all celiac patient-derived T cell lines tested so far

Substance: LQLQPFPQPQLPYPQPQLPYPQPQLPYPQPQPF [^D933-mer]
- Detection of peptide in peripheral plasma at 60 minutes [4]: detected
- Concentration in peripheral plasma at 60 minutes ([4]; SD): 7.0 ± 0.4 nM
